Laboratory results reported in ChEMBL document CHEMBL4138123, “Design, synthesis and biological evaluation of novel pyrazolochalcones as potential modulators of PI3K/Akt/mTOR pathway and inducers of apoptosis in breast cancer cells” (Eur J Med Chem, 2017).

Experiments:
Assay type in all cases: functional
[1] = system: MOLT-4; test: Cytotoxicity against human MOLT4 cells assessed as growth inhibition after 48 hrs by sulforhodamine B assay; settings: MOLT-4, 48 h; for CC50: read-out: LC50 (the source's name)
[2] = system: HOP-62; test: Cytotoxicity against human HOP62 cells assessed as growth inhibition after 48 hrs by sulforhodamine B assay; settings: HOP-62, 48 h
[3] = system: M14; test: Cytotoxicity against human M14 cells assessed as growth inhibition after 48 hrs by sulforhodamine B assay; settings: M14, 48 h
[4] = system: 786-0; test: Cytotoxicity against human 786-0 cells assessed as growth inhibition after 48 hrs by sulforhodamine B assay; settings: 786-0, 48 h
[5] = system: NCI/ADR-RES; test: Cytotoxicity against human NCI/ADR-RES cells assessed as growth inhibition after 48 hrs by sulforhodamine B assay
[6] = system: NCI-H460; test: Cytotoxicity against human NCI-H460 cells assessed as growth inhibition after 48 hrs by sulforhodamine B assay; settings: NCI-H460, 48 h
[7] = system: NCI-H23; test: Cytotoxicity against human NCI-H23 cells assessed as cell growth at 0.01 uM after 48 hrs by sulforhodamine B assay relative to control; settings: NCI-H23, 48 h, read-out: Activity
[8] = system: HL-60(TB); test: Cytotoxicity against human HL-60(TB) cells assessed as cell growth at 1 uM after 48 hrs by sulforhodamine B assay relative to control; settings: HL-60, 48 h, read-out: Activity
[9] = system: KM12; test: Cytotoxicity against human KM12 cells assessed as cell growth at 100 uM after 48 hrs by sulforhodamine B assay relative to control; settings: KM12, 48 h, read-out: Activity
[10] = system: NCI/ADR-RES; test: Cytotoxicity against human NCI/ADR-RES cells assessed as cell growth at 0.1 uM after 48 hrs by sulforhodamine B assay relative to control; settings: read-out: Activity
[11] = system: SF-539; test: Cytotoxicity against human SF539 cells assessed as cell growth at 1 uM after 48 hrs by sulforhodamine B assay relative to control; settings: SF-539, 48 h, read-out: Activity
[12] = system: NCI-H460; test: Cytotoxicity against human NCI-H460 cells assessed as cell growth at 100 uM after 48 hrs by sulforhodamine B assay relative to control; settings: NCI-H460, 48 h, read-out: Activity
[13] = system: NCI-H226; test: Cytotoxicity against human NCI-H226 cells assessed as cell growth at 0.01 uM after 48 hrs by sulforhodamine B assay relative to control; settings: NCI-H226, 48 h, read-out: Activity
[14] = system: U-251; test: Cytotoxicity against human U251 cells assessed as cell growth at 100 uM after 48 hrs by sulforhodamine B assay relative to control; settings: U-251, 48 h, read-out: Activity
[15] = system: SK-MEL-5; test: Cytotoxicity against human SK-MEL-5 cells assessed as cell growth at 1 uM after 48 hrs by sulforhodamine B assay relative to control; settings: SK-MEL-5, 48 h, read-out: Activity
[16] = system: OVCAR-8; test: Cytotoxicity against human OVCAR8 cells assessed as cell growth at 100 uM after 48 hrs by sulforhodamine B assay relative to control; settings: OVCAR-8, 48 h, read-out: Activity
[17] = system: SK-OV-3; test: Cytotoxicity against human SKOV3 cells assessed as cell growth at 0.1 uM after 48 hrs by sulforhodamine B assay relative to control; settings: SK-OV-3, 48 h, read-out: Activity
[18] = system: M14; test: Cytotoxicity against human M14 cells assessed as cell growth at 0.01 uM after 48 hrs by sulforhodamine B assay relative to control; settings: M14, 48 h, read-out: Activity
[19] = system: OVCAR-4; test: Cytotoxicity against human OVCAR4 cells assessed as cell growth at 10 uM after 48 hrs by sulforhodamine B assay relative to control; settings: OVCAR-4, 48 h, read-out: Activity
[20] = system: OVCAR-4; test: Cytotoxicity against human OVCAR4 cells assessed as cell growth at 0.1 uM after 48 hrs by sulforhodamine B assay relative to control; settings: OVCAR-4, 48 h, read-out: Activity
[21] = system: A498; test: Cytotoxicity against human A498 cells assessed as cell growth at 100 uM after 48 hrs by sulforhodamine B assay relative to control; settings: A498, 48 h, read-out: Activity
[22] = system: MOLT-4; test: Cytotoxicity against human MOLT4 cells assessed as cell growth at 10 uM after 48 hrs by sulforhodamine B assay relative to control; settings: MOLT-4, 48 h, read-out: Activity
[23] = system: SK-MEL-5; test: Cytotoxicity against human SK-MEL-5 cells assessed as cell growth at 100 uM after 48 hrs by sulforhodamine B assay relative to control; settings: SK-MEL-5, 48 h, read-out: Activity
[24] = system: M14; test: Cytotoxicity against human M14 cells assessed as cell growth at 0.1 uM after 48 hrs by sulforhodamine B assay relative to control; settings: M14, 48 h, read-out: Activity
[25] = system: SW-620; test: Cytotoxicity against human SW620 cells assessed as cell growth at 0.01 uM after 48 hrs by sulforhodamine B assay relative to control; settings: SW-620, 48 h, read-out: Activity
[26] = system: OVCAR-3; test: Cytotoxicity against human OVCAR3 cells assessed as cell growth at 1 uM after 48 hrs by sulforhodamine B assay relative to control; settings: OVCAR-3, 48 h, read-out: Activity
[27] = system: HCT-15; test: Cytotoxicity against human HCT15 cells assessed as cell growth at 10 uM after 48 hrs by sulforhodamine B assay relative to control; settings: HCT-15, 48 h, read-out: Activity
[28] = system: OVCAR-8; test: Cytotoxicity against human OVCAR8 cells assessed as cell growth at 0.1 uM after 48 hrs by sulforhodamine B assay relative to control; settings: OVCAR-8, 48 h, read-out: Activity
[29] = system: A549; test: Cytotoxicity against human A549/ATCC cells assessed as cell growth at 100 uM after 48 hrs by sulforhodamine B assay relative to control; settings: A549, 48 h, read-out: Activity
[30] = system: M14; test: Cytotoxicity against human M14 cells assessed as cell growth at 10 uM after 48 hrs by sulforhodamine B assay relative to control; settings: M14, 48 h, read-out: Activity
[31] = system: Hs-578T; test: Cytotoxicity against human Hs 578T cells assessed as cell growth at 100 uM after 48 hrs by sulforhodamine B assay relative to control; settings: read-out: Activity
[32] = system: NCI/ADR-RES; test: Cytotoxicity against human NCI/ADR-RES cells assessed as cell growth at 1 uM after 48 hrs by sulforhodamine B assay relative to control; settings: read-out: Activity
[33] = system: U-251; test: Cytotoxicity against human U251 cells assessed as cell growth at 0.1 uM after 48 hrs by sulforhodamine B assay relative to control; settings: U-251, 48 h, read-out: Activity
[34] = system: SF-539; test: Cytotoxicity against human SF539 cells assessed as cell growth at 0.1 uM after 48 hrs by sulforhodamine B assay relative to control; settings: SF-539, 48 h, read-out: Activity
[35] = system: NCI-H460; test: Cytotoxicity against human NCI-H460 cells assessed as cell growth at 1 uM after 48 hrs by sulforhodamine B assay relative to control; settings: NCI-H460, 48 h, read-out: Activity

COc1ccc(-c2cc(/C=C/C(=O)c3ccc4c(c3)OCO4)[nH]n2)cc1OC
GI50 [1]: 2.2 µM
GI50 [2]: 1.73 µM
GI50 [3]: 1.91 µM
GI50 [4]: 1.81 µM
GI50 [5]: 3.43 µM
GI50 [6]: 0.6 µM

COc1cc(-c2cc(/C=C/C(=O)c3ccc4c(c3)OCO4)[nH]n2)cc(OC)c1OC
growth at 0.01 µM [7]: 96%
growth at 1 µM [8]: 86%
growth at 100 µM [9]: 3%
growth at 0.1 µM [10]: 95%
growth at 1 µM [11]: 86%
growth at 100 µM [12]: -34%
TGI [1]: 9.15 µM
CC50 [1]: > 100 µM
growth at 0.01 µM [13]: 97%
LC50 [2]: 23.5 µM
TGI [2]: 5.17 µM
growth at 100 µM [14]: -56%
growth at 1 µM [15]: 95%
growth at 100 µM [16]: -33%
LC50 (concentration killing 50% of cells) [3]: > 100 µM
TGI [3]: > 100 µM
growth at 0.1 µM [17]: 103%
growth at 0.01 µM [18]: 97%
growth at 10 µM [19]: 27%
growth at 0.1 µM [20]: 92%
growth at 100 µM [21]: -38%
growth at 10 µM [22]: -4%
LC50 [4]: > 100 µM
TGI [4]: 5.82 µM
growth at 100 µM [23]: 8%
growth at 0.1 µM [24]: 97%
LC50 [5]: > 100 µM
TGI [5]: > 100 µM
growth at 0.01 µM [25]: 99%
growth at 1 µM [26]: 102%
growth at 10 µM [27]: -13%
growth at 0.1 µM [28]: 99%
growth at 100 µM [29]: 8%
LC50 [6]: > 100 µM
TGI [6]: 5.1 µM
growth at 10 µM [30]: 15%
growth at 100 µM [31]: -2%
growth at 1 µM [32]: 96%
growth at 0.1 µM [33]: 95%
growth at 0.1 µM [34]: 99%
growth at 1 µM [35]: 93%

COc1cc(-c2cc(/C=C/C(=O)c3ccc(Cl)c(Cl)c3)[nH]n2)cc(OC)c1OC
growth at 0.01 µM [7]: 95%
growth at 1 µM [8]: 90%
growth at 100 µM [9]: 3%
growth at 0.1 µM [10]: 96%
growth at 1 µM [11]: 88%
growth at 100 µM [12]: -24%
TGI [1]: 40.6 µM
CC50 [1]: > 100 µM
growth at 0.01 µM [13]: 103%
LC50 [2]: 42.6 µM
TGI [2]: 7.66 µM
growth at 100 µM [14]: -5%
growth at 1 µM [15]: 94%
growth at 100 µM [16]: -36%
LC50 (concentration killing 50% of cells) [3]: > 100 µM
TGI [3]: > 100 µM
growth at 0.1 µM [17]: 104%
growth at 0.01 µM [18]: 98%
growth at 10 µM [19]: 52%
growth at 0.1 µM [20]: 106%
growth at 100 µM [21]: -25%
growth at 10 µM [22]: 24%
LC50 [4]: > 100 µM
TGI [4]: 68 µM
growth at 100 µM [23]: -30%
growth at 0.1 µM [24]: 94%
LC50 [5]: > 100 µM
TGI [5]: > 100 µM
growth at 0.01 µM [25]: 98%
growth at 1 µM [26]: 102%
growth at 10 µM [27]: 29%
growth at 0.1 µM [28]: 97%
growth at 100 µM [29]: 2%
LC50 [6]: > 100 µM
TGI [6]: 36.6 µM
growth at 10 µM [30]: 61%
growth at 100 µM [31]: 3%
growth at 1 µM [32]: 92%
growth at 0.1 µM [33]: 95%
growth at 0.1 µM [34]: 94%
growth at 1 µM [35]: 93%
